Data set [1] can be described thus: Residual chlorine concentration of recycled pulp (JIS K 0102 33.2). It is filed as physicochemical. To be noted: 5.00 g eluted into 100 ml, criterion Less than 1 ppm. As to the method: (§1) Eight commercially available disposable diapers (Moony M Size, Unicharm Corp.) that had adsorbed 200 ml of physiological saline were placed in a twin tub compact washing machine (Harebare AST-01, Alumis Co., Ltd.). 80 g of CaO (Wako Pure Chemical Industries, Ltd.) were placed in the washing tub followed by the addition of 6.5 L of acidic electrolyzed water (pH 3, generated with the ESS-ZERO Electrolyzed Water Sanitation System manufactured by Tech Corp.). After washing for 15 minutes, the liquid inside the washing tub was discharged followed by newly adding 6.5 L of acidic electrolyzed water (pH 3, formed with the ESS-ZERO Electrolyzed Water Sanitation System manufactured by Tech Corp.). After washing for 15 minutes, only the pulp that floated in the liquid in the washing tub was skimmed off followed by placing in a mesh pouch (measuring 25 cm on a side, N-No. 250HD, NBC Meshtec Inc.) and dehydrating for 5 minutes in the spin tub (dehydrator). The recycled pulp was rinsed for 15 minutes with running water (tap water) while still in the mesh pouch followed by again dehydrating for 5 minutes in the spin tub (dehydrator). The pulp was then dried for 24 hours with a hot air dryer at 105° C. Recycled pulp was obtained according to the aforementioned method.
5.00 g of pulp dried in the same manner as described above were eluted into 100 ml of physiological saline followed by measurement of the chlorine concentration thereof (JIS K 0102 33.2).
(§2) Eight commercially available disposable diapers (Moony M Size, Unicharm Corp.) that had adsorbed 200 ml of physiological saline were placed in a twin tub compact washing machine (Harebare AST-01, Alumis Co., Ltd.). 80 g of CaO (Wako Pure Chemical Industries, Ltd.) were placed in the washing tub followed by the addition of 6.5 L of alkaline electrolyzed water (pH 12, generated with the ESS-ZERO Electrolyzed Water Sanitation System manufactured by Tech Corp.). […]

A further data set has as its system Staphylococcus aureus. Briefly: Evaluation of bactericidal function (MIC / minimum bactericidal concentration). Also noted: key: −: exhibited effects of bactericidal action; +: with the exception of the results of Comparative Examples 1 and 2. To be noted: at the concentration used in the example; absence of growth 24 hours later. The data set is classed as cell-based. As to the method:
(§3) Minimum inhibitory concentration (MIC) of the acidic electrolyzed water was measured based on the standard test method of the Japanese Society of Chemotherapy followed by confirming the absence of growth 24 hours later to evaluate the minimum bactericidal concentration and determine if bactericidal effects are present at the concentration used in the example. Minimum inhibitory concentrations (MIC) of the alkaline electrolyzed water and acidic electrolyzed water were respectively measured based on the standard test method of the Japanese Society of Chemotherapy followed by confirming the absence of growth 24 hours later to evaluate the minimum bactericidal concentration and determine if bactericidal effects are present at the concentration used in Example 2-2. Minimum inhibitory concentrations (MIC) of the acidic electrolyzed water and alkaline electrolyzed water were respectively measured based on the standard test method of the Japanese Society of Chemotherapy followed by confirming the absence of growth 24 hours later to evaluate the minimum bactericidal concentration and determine if bactericidal effects are present at the concentration used in Example 3-2. Minimum inhibitory concentration (MIC) of the tap water was measured based on the standard test method of the Japanese Society of Chemotherapy followed by confirming the absence of growth 24 hours later to evaluate the minimum bactericidal concentration and determine if bactericidal effects are present at the concentration used in the example. Minimum inhibitory concentrations (MIC) of the alkaline electrolyzed water was measured based on the standard test method of the Japanese Society of Chemotherapy followed by confirming the absence of growth 24 hours later to evaluate the minimum bactericidal concentration and determine if bactericidal effects are present at the concentration used in Comparative Example 2-2. Minimum inhibitory concentration (MIC) of the 250 ppm sodium hypochlorite was measured based on the standard test method of the Japanese Society of Chemotherapy followed by confirming the absence of growth 24 hours later to evaluate the minimum bactericidal concentration and determine if bactericidal effects are present at the concentration used in Comparative Example 3-2. Minimum inhibitory concentration (MIC) of the 500 ppm sodium hypochlorite was measured based on the standard test method of the Japanese Society of Chemotherapy followed by confirming the absence of growth 24 hours later to evaluate the minimum bactericidal concentration and determine if bactericidal effects are present at the concentration used in Comparative Example 4-2. Minimum inhibitory concentration (MIC) of the 1000 ppm sodium hypochlorite was measured based on the standard test method of the Japanese Society of Chemotherapy followed by confirming the absence of growth 24 hours later to evaluate the minimum bactericidal concentration and determine if bactericidal effects are present at the concentration used in Comparative Example 4-2.

For the next data set, the system named is Escherichia coli. The description is as above. The data set is classed as cell-based. On the set-up: key: −: exhibited effects of bactericidal action; +: with the exception of the results of Comparative Examples 1 and 2. To be noted: at the concentration used in the example; absence of growth 24 hours later. As for the experimental part:
as §3

The nature of data set [2]: Evaluation of pH of recycled pulp. The data set is classed as physicochemical. To be noted: 1.00 g dried pulp in 10 ml physiological saline; criterion pH 3.1-9.8. As for the experimental part:
as §1
1.00 g of the dried pulp was weighed out into a beaker followed by the addition of 10 ml of physiological saline. After gently stirring with a glass rod, the pulp was allowed to stand undisturbed for 10 minutes followed by measurement of the liquid inside the beaker with a pH meter (AS-212, As One Corp.).
as §2

For `OCl` [compound 5, sodium hypochlorite], in data set [1], the “Residual Chlorine ppm” value was found to be 1 ppm. Moreover, the “Bactericidal Effect S. aureus” value in the data set with Staphylococcus aureus is “−”. In addition, in the data set on Escherichia coli, the “Bactericidal Effect E. coli” value is on record as “−”. Moreover, in data set [2], the “pH of Recycled Pulp” value turned out to be 12.0.

In the case of `[Na+].[O-]Cl` [compound 4, sodium hypochlorite], the “Residual Chlorine ppm” value in data set [1] came out at 1 ppm. In the data set on Staphylococcus aureus, the “Bactericidal Effect S. aureus” value is recorded as “−”. In addition, the “Bactericidal Effect E. coli” value with Escherichia coli is reported as “−”. In addition, the “pH of Recycled Pulp” value in data set [2] is 12.2.

On to `OCl` [compound 3, sodium hypochlorite], for which the “Residual Chlorine ppm” value in data set [1] was 1 ppm. The “Bactericidal Effect S. aureus” value with Staphylococcus aureus is given as “−”. Also, the “Bactericidal Effect E. coli” value with Escherichia coli was “−”. Moreover, the “pH of Recycled Pulp” value in data set [2] came out at 12.3.

(Values after patent US9839708B2, “Method for treating used absorbent article” (Unicharm Corporation, priority 2012, dated 2017).)
